Experiment: solvents tested for dissolving the acid and the cannabinoid
Format: physicochemical
Details: compared with other solvents, including other alcohols
Procedure: Various solvents are tested, including other alcohols.

With `CC(O)CO` (stereo not shown) [Propylene glycol] the “dissolution of the acid and the cannabinoid in the solvent” value was “dissolve both the acid and the cannabinoid efficiently and without excessive heating”.

From patent US20240238316A1, “C[…]” (priority 2021, published 2024)
